How the values were obtained:
Assay type in all cases: cell-based
human TLR7 = target: T1, human TLR7 (Homo sapiens, UniProt Q9NYK1); experiment: TLR7 inhibition reporter assay (HEK-Blue cells, SEAP reporter, gardiquimod stimulation); settings: HEK-Blue cells overexpressing human TLR7, SEAP reporter, gardiquimod 7.5 μM
T1 construct: host or cells: HEK-Blue cells (HEK293-derived reporter line)
T1 sequence (Q9NYK1 27-1049): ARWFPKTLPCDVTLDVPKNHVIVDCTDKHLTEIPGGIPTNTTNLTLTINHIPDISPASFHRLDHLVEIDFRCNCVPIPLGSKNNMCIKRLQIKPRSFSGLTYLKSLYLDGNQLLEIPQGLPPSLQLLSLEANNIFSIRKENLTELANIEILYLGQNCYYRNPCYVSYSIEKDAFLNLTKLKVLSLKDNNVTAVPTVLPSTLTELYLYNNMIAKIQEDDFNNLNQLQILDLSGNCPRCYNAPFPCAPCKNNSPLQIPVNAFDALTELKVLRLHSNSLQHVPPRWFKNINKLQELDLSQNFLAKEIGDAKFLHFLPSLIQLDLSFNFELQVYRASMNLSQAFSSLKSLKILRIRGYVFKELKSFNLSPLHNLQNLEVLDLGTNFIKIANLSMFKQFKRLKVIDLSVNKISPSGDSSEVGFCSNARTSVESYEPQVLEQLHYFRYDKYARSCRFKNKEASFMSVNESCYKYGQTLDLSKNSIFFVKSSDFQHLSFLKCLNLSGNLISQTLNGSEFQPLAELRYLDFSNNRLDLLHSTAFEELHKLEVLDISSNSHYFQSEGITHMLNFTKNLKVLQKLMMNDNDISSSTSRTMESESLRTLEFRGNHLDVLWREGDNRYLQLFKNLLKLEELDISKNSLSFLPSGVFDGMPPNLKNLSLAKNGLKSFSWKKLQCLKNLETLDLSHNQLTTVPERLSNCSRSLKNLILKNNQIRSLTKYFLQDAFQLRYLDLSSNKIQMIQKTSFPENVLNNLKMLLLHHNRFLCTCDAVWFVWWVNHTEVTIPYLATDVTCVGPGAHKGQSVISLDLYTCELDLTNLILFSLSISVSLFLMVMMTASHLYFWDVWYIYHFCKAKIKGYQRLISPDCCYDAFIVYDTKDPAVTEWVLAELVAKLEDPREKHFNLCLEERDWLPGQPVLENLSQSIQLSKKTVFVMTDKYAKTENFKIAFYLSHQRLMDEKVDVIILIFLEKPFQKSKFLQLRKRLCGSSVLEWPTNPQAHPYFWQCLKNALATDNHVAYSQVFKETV
Method in brief: (§1)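 HEK-Blue cells overexpressing the receptor, with NF-κB/AP-1-driven SEAP, were pre-treated 30 min at room temperature with compound (0.05 nM–50 μM), then stimulated with gardiquimod 7.5 μM (TLR7), R848 15.9 μM (TLR8) or ODN2006 5 nM (TLR9). SEAP was read after 22 h at 37 °C as percent inhibition.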

human TLR8 = target: T2, human TLR8 (Homo sapiens, UniProt Q9NR97); experiment: TLR8 inhibition reporter assay (HEK-Blue cells, SEAP reporter, R848 stimulation); settings: HEK-Blue cells overexpressing human TLR8, SEAP reporter, R848 15.9 μM
T2 construct: host or cells: HEK-Blue cells (HEK293-derived reporter line)
T2 sequence (Q9NR97 27-1041): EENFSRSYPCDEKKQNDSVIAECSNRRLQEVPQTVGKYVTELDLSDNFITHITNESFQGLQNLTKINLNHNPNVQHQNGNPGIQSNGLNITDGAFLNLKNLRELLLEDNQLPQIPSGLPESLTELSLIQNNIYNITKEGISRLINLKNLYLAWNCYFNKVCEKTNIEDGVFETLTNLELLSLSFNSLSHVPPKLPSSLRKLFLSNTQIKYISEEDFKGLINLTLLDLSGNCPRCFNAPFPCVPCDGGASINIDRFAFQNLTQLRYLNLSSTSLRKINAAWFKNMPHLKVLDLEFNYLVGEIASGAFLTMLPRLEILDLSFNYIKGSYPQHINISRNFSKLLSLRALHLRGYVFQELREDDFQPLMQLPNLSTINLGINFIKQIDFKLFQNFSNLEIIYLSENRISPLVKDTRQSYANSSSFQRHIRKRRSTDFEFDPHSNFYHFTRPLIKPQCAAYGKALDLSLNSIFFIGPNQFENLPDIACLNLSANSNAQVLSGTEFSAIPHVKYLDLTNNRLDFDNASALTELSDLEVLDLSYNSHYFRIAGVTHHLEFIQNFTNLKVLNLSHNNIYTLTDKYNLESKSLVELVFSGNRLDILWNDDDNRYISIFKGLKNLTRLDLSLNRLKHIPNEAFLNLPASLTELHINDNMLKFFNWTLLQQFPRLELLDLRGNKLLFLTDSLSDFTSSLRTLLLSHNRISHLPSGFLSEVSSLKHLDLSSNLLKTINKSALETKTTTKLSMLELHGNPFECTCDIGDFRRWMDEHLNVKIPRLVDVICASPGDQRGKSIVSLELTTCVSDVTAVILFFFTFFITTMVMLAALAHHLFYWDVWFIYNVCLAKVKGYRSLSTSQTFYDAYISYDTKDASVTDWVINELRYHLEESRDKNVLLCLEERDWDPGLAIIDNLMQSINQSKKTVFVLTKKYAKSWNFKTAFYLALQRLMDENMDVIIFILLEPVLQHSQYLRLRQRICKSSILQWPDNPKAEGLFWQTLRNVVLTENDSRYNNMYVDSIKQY
Method in brief: as §1

human TLR9 = target: T3, human TLR9 (Homo sapiens, UniProt Q9NR96); experiment: TLR9 inhibition reporter assay (HEK-Blue cells, SEAP reporter, ODN2006 stimulation); settings: HEK-Blue cells overexpressing human TLR9, SEAP reporter, ODN2006 5 nM
T3 construct: host or cells: HEK-Blue cells (HEK293-derived reporter line)
T3 sequence (Q9NR96 26-1032): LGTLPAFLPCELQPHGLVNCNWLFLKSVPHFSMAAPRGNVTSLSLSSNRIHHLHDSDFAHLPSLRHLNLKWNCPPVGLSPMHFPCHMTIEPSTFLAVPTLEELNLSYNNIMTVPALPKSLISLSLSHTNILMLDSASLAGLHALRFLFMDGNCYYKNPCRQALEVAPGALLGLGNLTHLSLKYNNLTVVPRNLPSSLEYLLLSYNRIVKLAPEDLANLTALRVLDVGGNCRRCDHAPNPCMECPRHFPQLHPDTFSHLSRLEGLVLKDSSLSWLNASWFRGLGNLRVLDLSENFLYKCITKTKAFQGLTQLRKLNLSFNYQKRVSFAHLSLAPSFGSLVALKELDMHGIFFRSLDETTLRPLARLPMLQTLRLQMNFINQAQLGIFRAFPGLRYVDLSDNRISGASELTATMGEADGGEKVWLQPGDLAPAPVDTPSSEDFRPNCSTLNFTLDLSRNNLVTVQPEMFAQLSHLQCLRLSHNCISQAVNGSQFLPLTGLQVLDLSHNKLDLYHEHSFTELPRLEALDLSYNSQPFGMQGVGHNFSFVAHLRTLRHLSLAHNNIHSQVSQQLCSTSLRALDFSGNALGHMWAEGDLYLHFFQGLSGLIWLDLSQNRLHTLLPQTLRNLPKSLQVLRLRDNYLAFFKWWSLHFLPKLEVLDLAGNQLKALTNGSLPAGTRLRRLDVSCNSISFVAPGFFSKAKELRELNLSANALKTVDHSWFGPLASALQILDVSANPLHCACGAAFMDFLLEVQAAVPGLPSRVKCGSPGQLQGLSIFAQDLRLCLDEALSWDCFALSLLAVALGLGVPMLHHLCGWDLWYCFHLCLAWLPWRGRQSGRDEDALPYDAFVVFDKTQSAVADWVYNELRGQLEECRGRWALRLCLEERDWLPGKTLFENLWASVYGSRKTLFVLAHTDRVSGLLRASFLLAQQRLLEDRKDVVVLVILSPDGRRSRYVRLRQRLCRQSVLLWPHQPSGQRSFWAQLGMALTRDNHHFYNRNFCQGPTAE
Method in brief: as §1

| Compound | IC50 (human TLR7) | IC50 (human TLR8) | IC50 (human TLR9) |
| --- | --- | --- | --- |
| CC(C)c1c(-c2ccnc3[nH]ncc23)[nH]c2ccc(C3CCN(CC4CCN(C(C)C)CC4)CC3)c(F)c12 [Example 967, 4-(4-fluoro-3-isopropyl-5-(1-((1-isopropylpiperidin-4-yl)methyl)piperidin-4-yl)-1H-indol-2-yl)-1H-pyrazolo[3,4-b]pyridine] | 100 to 1000 nM | 100 to 1000 nM | 1000 to 50000 nM |
| Cc1cc2nccn2cc1-c1[nH]c2ccc(C3CCN(CCCN(C)C)CC3)cc2c1C(C)C [Example 856, 3-(4-(3-isopropyl-2-(7-methylimidazo[1,2-a]pyridin-6-yl)-1H-indol-5-yl)piperidin-1-yl)-N,N-dimethylpropan-1-amine] | < 100 nM | < 100 nM | 100 to 1000 nM |
| CNC(=O)CN1CCC(c2ccc3[nH]c(-c4ccnc5[nH]ncc45)c(C(C)C)c3c2)CC1 [Example 276, 2-(4-(3-isopropyl-2-(1H-pyrazolo[3,4-b]pyridin-4-yl)-1H-indol-5-yl)piperidin-1-yl)-N-methylacetamide] | < 100 nM | < 100 nM | 1000 to 50000 nM |
| Cc1ccnc2c1c(-c1[nH]c3ccc(C4CCN(C(=O)CN(C)C)CC4)cc3c1C(C)C)cn2C [Example 457, 1-(4-(2-(1,4-dimethyl-1H-pyrrolo[2,3-b]pyridin-3-yl)-3-isopropyl-1H-indol-5-yl)piperidin-1-yl)-2-(dimethylamino)ethan-1-one] | < 100 nM | < 100 nM | 1000 to 50000 nM |
| CC(=O)N1CCN(CC(=O)N2CCC(c3ccc4[nH]c(-c5ccnc6[nH]ncc56)c(C(C)C)c4c3)CC2)CC1 [Example 574, 2-(4-acetylpiperazin-1-yl)-1-(4-(3-isopropyl-2-(1H-pyrazolo[3,4-b]pyridin-4-yl)-1H-indol-5-yl)piperidin-1-yl)ethan-1-one] | < 100 nM | < 100 nM | > 50000 nM |
| COc1c(C)c(-c2[nH]c3ccc(C4CCN(C5COC5)CC4)cc3c2C(C)C)nn2ncnc12 [Example 731, 6-(3-isopropyl-5-(1-(oxetan-3-yl)piperidin-4-yl)-1H-indol-2-yl)-8-methoxy-7-methyl-[1,2,4]triazolo[1,5-b]pyridazine] | < 100 nM | < 100 nM | 1000 to 50000 nM |

Next, values leading:

| IC50 (human TLR7) | IC50 (human TLR8) | IC50 (human TLR9) | Compound |
| --- | --- | --- | --- |
| < 100 nM | 100 to 1000 nM | 1000 to 50000 nM | CC(C)c1c(-c2ccc3nccn3c2)[nH]c2ccc(C3CCN(C(=O)[C@H]4CCCNC4)CC3)cc12 [Example 640, (S)-(4-(2-(imidazo[1,2-a]pyridin-6-yl)-3-isopropyl-1H-indol-5-yl)piperidin-1-yl)(piperidin-3-yl)methanone] |
| < 100 nM | 1000 to 50000 nM | 1000 to 50000 nM | CNC(=O)CN1CCC(c2ccc3[nH]c(-c4ccn5nc(C)nc5c4)c(C(C)C)c3c2)CC1 [Example 331, 2-(4-(3-isopropyl-2-(2-methyl-[1,2,4]triazolo[1,5-a]pyridin-7-yl)-1H-indol-5-yl)piperidin-1-yl)-N-methylacetamide] |
| 100 to 1000 nM | < 100 nM | 100 to 1000 nM | CC(C)c1c(-c2ccnc3[nH]ncc23)[nH]c2ccc(C3CCN(Cc4ccc(OCCN(C)c5ccccn5)cc4)CC3)cc12 [Example 894, N-(2-(4-((4-(3-isopropyl-2-(1H-pyrazolo[3,4-b]pyridin-4-yl)-1H-indol-5-yl)piperidin-1-yl)methyl)phenoxy)ethyl)-N-methylpyridin-2-amine] |
| 100 to 1000 nM | 1000 to 50000 nM | 1000 to 50000 nM | Cc1cc2cc(-c3[nH]c4ccc(C5CCN(C(=O)CN(C)C)CC5)cc4c3C(C)C)ccn2n1 [Example 535, 2-(dimethylamino)-1-(4-(3-isopropyl-2-(2-methylpyrazolo[1,5-a]pyridin-5-yl)-1H-indol-5-yl)piperidin-1-yl)ethan-1-one] |
| < 100 nM | < 100 nM | 1000 to 50000 nM | Cc1cc(-c2[nH]c3ccc(C4CCNCC4)cc3c2C(C)C)cc2cnnn12 [Example 78, 5-(3-isopropyl-5-(piperidin-4-yl)-1H-indol-2-yl)-7-methyl-[1,2,3]triazolo[1,5-a]pyridine] |
| < 100 nM | < 100 nM | 1000 to 50000 nM | CC(C)c1c(-c2ccc(C#N)c3ncccc23)[nH]c2ccc(C3CCN(CC(N)=O)CC3)cc12 [Example 369, 2-(4-(2-(8-cyanoquinolin-5-yl)-3-isopropyl-1H-indol-5-yl)piperidin-1-yl)acetamide] |
| < 100 nM | 100 to 1000 nM | 1000 to 50000 nM | CNC(=O)CN1CCC(c2ccc3[nH]c(-c4cc(C)n5nc(C)cc5c4)c(C(C)C)c3c2)CC1 [Example 419, 2-(4-(2-(2,7-dimethylpyrazolo[1,5-a]pyridin-5-yl)-3-isopropyl-1H-indol-5-yl)piperidin-1-yl)-N-methylacetamide] |
| < 100 nM | 100 to 1000 nM | 100 to 1000 nM | CNCC(=O)N1CCC(c2ccc3[nH]c(-c4cc(C(F)(F)F)c5nccn5c4)c(C(C)C)c3c2)CC1 [Example 508, 1-(4-(3-isopropyl-2-(8-(trifluoromethyl)imidazo[1,2-a]pyridin-6-yl)-1H-indol-5-yl)piperidin-1-yl)-2-(methylamino)ethan-1-one] |
